Measured values reported in patent US7820623B2 (priority 2006, dated 2010).
Where two headings read alike, the source gives them in different places. Bridge positions count the residues as written; N and C are the ends. Square brackets hold non-standard residues; d marks the D form. Peptide text beside a SMILES is read from it. 1Nal = N[C@@H](Cc1cccc2ccccc12)C(=O)O

Experiments:
[1] = target: human Kv1.3 (Homo sapiens, UniProt P22001); assay type: cell-based; design: expressed in transfected cells
human Kv1.3, sequence (P22001 whole entry): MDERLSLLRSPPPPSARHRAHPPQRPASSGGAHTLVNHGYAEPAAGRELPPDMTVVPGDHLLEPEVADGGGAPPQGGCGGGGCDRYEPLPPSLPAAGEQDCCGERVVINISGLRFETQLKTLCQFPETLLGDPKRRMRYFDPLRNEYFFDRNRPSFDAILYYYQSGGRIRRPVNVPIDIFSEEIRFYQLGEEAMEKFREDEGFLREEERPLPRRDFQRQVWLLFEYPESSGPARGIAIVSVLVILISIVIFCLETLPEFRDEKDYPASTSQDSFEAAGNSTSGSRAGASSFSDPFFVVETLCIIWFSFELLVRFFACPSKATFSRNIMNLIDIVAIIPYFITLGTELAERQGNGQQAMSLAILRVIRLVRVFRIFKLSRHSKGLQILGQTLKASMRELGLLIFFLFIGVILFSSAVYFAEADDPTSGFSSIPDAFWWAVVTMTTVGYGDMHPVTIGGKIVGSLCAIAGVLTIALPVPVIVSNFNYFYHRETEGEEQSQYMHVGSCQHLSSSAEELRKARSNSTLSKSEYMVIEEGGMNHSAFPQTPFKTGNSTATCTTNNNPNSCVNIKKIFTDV

[2] = tested on: thapsigargin-induced IFN-g production in human whole blood; assay type: cell-based
[3] = tested on: thapsigargin-induced IL-2 production in human whole blood
[4] = read-out: Analogue Activity (IC50) WB/IFNg
[5] = read-out: Analogue Activity (IC50) WB/IL-2

CC[C@H](C)[C@@H]1NC(=O)[C@H](CCCCN)NC(=O)[C@@H](NC(=O)[C@H](CCCCN)NC(=O)[C@@H](NC(=O)[C@H](CC(N)=O)NC(=O)[C@@H](NC(=O)[C@@H](NC(=O)[C@@H](NC(=O)CN)C(C)C)[C@@H](C)CC)[C@@H](C)CC)C(C)C)CSSC[C@@H]2NC(=O)[C@H](CCCCN)NC(=O)CNC(=O)[C@H](Cc3ccccc3)NC(=O)[C@H](CCCNC(=N)N)NC(=O)[C@H](CCSC)NC(=O)CNC(=O)[C@H](C)NC(=O)[C@H](CCCCN)NC(=O)[C@H](CCCCN)NC(=O)[C@@H]3CSSC[C@@H](C(=O)N[C@H](C(=O)N4CCC[C@H]4C(=O)N[C@@H](CCCCN)C(=O)O)[C@@H](C)O)NC(=O)[C@H](Cc4c[nH]cn4)NC(=O)[C@H](CSSC[C@H](NC(=O)[C@H](CCC(N)=O)NC(=O)[C@H](CCCNC(=N)N)NC(=O)[C@H](CO)NC1=O)C(=O)N[C@@H](CC(C)C)C(=O)N[C@@H](CCC(=O)O)C(=O)N1CCC[C@H]1C(=O)N3)NC(=O)[C@H](CCCCN)NC(=O)CNC(=O)[C@H](C)NC(=O)[C@H](CCSC)NC2=O [N30A] (H-GVIINVKCKISRQCLEPCKKAGMRFGKCMAGKCHCTPK-OH; disulfide 8-28, 14-33, 18-35)
Kv1.3 Selectivity (= Kv1.1/Kv.3 IC50) [1]: 14 | IC50 [2, 4]: 0.637 nM | IC50 [3, 5]: 0.971 nM

CC[C@H](C)[C@@H]1NC(=O)[C@H](CCCCN)NC(=O)[C@@H](NC(=O)[C@H](CCCCN)NC(=O)[C@@H](NC(=O)[C@H](CC(N)=O)NC(=O)[C@@H](NC(=O)[C@@H](NC(=O)[C@@H](NC(=O)CN)C(C)C)[C@@H](C)CC)[C@@H](C)CC)C(C)C)CSSC[C@@H]2NC(=O)[C@H](CCCCN)NC(=O)CNC(=O)[C@H](Cc3ccccc3)NC(=O)[C@H](CCCNC(=N)N)NC(=O)[C@H](CCSC)NC(=O)CNC(=O)[C@H](C)NC(=O)[C@H](CCCCN)NC(=O)[C@H](CCCCN)NC(=O)[C@@H]3CSSC[C@@H](C(=O)N[C@H](C(=O)N[C@@H](CCC(=O)O)C(=O)N[C@@H](CCCCN)C(=O)O)[C@@H](C)O)NC(=O)[C@H](Cc4c[nH]cn4)NC(=O)[C@H](CSSC[C@H](NC(=O)[C@H](CCC(N)=O)NC(=O)[C@H](CCCNC(=N)N)NC(=O)[C@H](CO)NC1=O)C(=O)N[C@@H](CC(C)C)C(=O)N[C@@H](CCC(=O)O)C(=O)N1CCC[C@H]1C(=O)N3)NC(=O)[C@H](CCCCN)NC(=O)CNC(=O)[C@H](CC(N)=O)NC(=O)[C@H](CCSC)NC2=O [P37E] (H-GVIINVKCKISRQCLEPCKKAGMRFGKCMNGKCHCTEK-OH; disulfide 8-28, 14-33, 18-35)
Kv1.3 Selectivity (= Kv1.1/Kv.3 IC50) [1]: 65 | IC50 [2, 4]: 1.6 nM | IC50 [3, 5]: 0.239 nM

CC[C@H](C)[C@@H]1NC(=O)[C@H](CCCCN)NC(=O)[C@@H](NC(=O)[C@H](CCCCN)NC(=O)[C@@H](NC(=O)[C@H](CC(N)=O)NC(=O)[C@@H](NC(=O)[C@@H](NC(=O)[C@@H](NC(=O)CN)C(C)C)[C@@H](C)CC)[C@@H](C)CC)C(C)C)CSSC[C@@H]2NC(=O)[C@H](CCCCN)NC(=O)[C@H](Cc3cccc4ccccc34)NC(=O)[C@H](Cc3ccccc3)NC(=O)[C@H](CCCNC(=N)N)NC(=O)[C@H](CCSC)NC(=O)CNC(=O)[C@H](C)NC(=O)[C@H](CCCCN)NC(=O)[C@H](CCCCN)NC(=O)[C@@H]3CSSC[C@@H](C(=O)N[C@H](C(=O)N4CCC[C@H]4C(=O)N[C@@H](CCCCN)C(=O)O)[C@@H](C)O)NC(=O)[C@H](Cc4c[nH]cn4)NC(=O)[C@H](CSSC[C@H](NC(=O)[C@H](CCC(N)=O)NC(=O)[C@H](CCCNC(=N)N)NC(=O)[C@H](CO)NC1=O)C(=O)N[C@@H](CC(C)C)C(=O)N[C@@H](CCC(=O)O)C(=O)N1CCC[C@H]1C(=O)N3)NC(=O)[C@H](CCCCN)NC(=O)CNC(=O)[C@H](CC(N)=O)NC(=O)[C@H](CCSC)NC2=O [G26Nal] (H-GVIINVKCKISRQCLEPCKKAGMRF[1Nal]KCMNGKCHCTPK-OH; disulfide 8-28, 14-33, 18-35)
IC50 [2, 4]: 10.7 nM | IC50 [3, 5]: 9.9 nM

CC[C@H](C)[C@@H]1NC(=O)[C@H](CCCCN)NC(=O)[C@@H](NC(=O)[C@H](CCCCN)NC(=O)[C@@H](NC(=O)[C@H](CC(N)=O)NC(=O)[C@@H](NC(=O)[C@@H](NC(=O)[C@@H](NC(=O)CN)C(C)C)[C@@H](C)CC)[C@@H](C)CC)C(C)C)CSSC[C@@H]2NC(=O)[C@H](CCCCN)NC(=O)CNC(=O)[C@H](Cc3ccccc3)NC(=O)[C@H](CCCNC(=N)N)NC(=O)[C@H](CCCNC(=N)N)NC(=O)CNC(=O)[C@H](C)NC(=O)[C@H](CCCCN)NC(=O)[C@H](CCCCN)NC(=O)[C@@H]3CSSC[C@@H](C(=O)N[C@H](C(=O)N4CCC[C@H]4C(=O)N[C@@H](CCCCN)C(=O)O)[C@@H](C)O)NC(=O)[C@H](Cc4c[nH]cn4)NC(=O)[C@H](CSSC[C@H](NC(=O)[C@H](CCC(N)=O)NC(=O)[C@H](CCCNC(=N)N)NC(=O)[C@H](CO)NC1=O)C(=O)N[C@@H](CC(C)C)C(=O)N[C@@H](CCC(=O)O)C(=O)N1CCC[C@H]1C(=O)N3)NC(=O)[C@H](CCCCN)NC(=O)CNC(=O)[C@H](CC(N)=O)NC(=O)[C@H](CCSC)NC2=O [M23R] (H-GVIINVKCKISRQCLEPCKKAGRRFGKCMNGKCHCTPK-OH; disulfide 8-28, 14-33, 18-35)
IC50 [2, 4]: 0.148 nM | IC50 [3, 5]: 0.182 nM

GVIINVKCKISRQCLEPCKKAGMRFGACMNGKCHCTPK [Ala-27 (SEQ ID No: 1423)]
IC50 ([2]; read-out: Average IC50 IFNg): 1.58 nM | IC50 ([3]; read-out: Average IC50 IL-2): 3.45 nM

CC[C@H](C)[C@@H]1NC(=O)[C@H](CCCCN)NC(=O)[C@@H](NC(=O)[C@H](CCCCN)NC(=O)[C@@H](NC(=O)[C@H](CC(N)=O)NC(=O)[C@@H](NC(=O)[C@@H](NC(=O)[C@@H](NC(=O)CN)C(C)C)[C@@H](C)CC)[C@@H](C)CC)C(C)C)CSSC[C@@H]2NC(=O)[C@H](CCCCN)NC(=O)CNC(=O)[C@H](Cc3ccccc3)NC(=O)[C@H](CCCNC(=N)N)NC(=O)[C@H](CCSC)NC(=O)CNC(=O)[C@H](C)NC(=O)[C@H](CCCCN)NC(=O)[C@H](CCCCN)NC(=O)[C@@H]3CSSC[C@@H](C(=O)N[C@H](C(=O)N4CCC[C@H]4C(=O)N[C@@H](CCCCN)C(=O)O)[C@@H](C)O)NC(=O)[C@H](Cc4c[nH]cn4)NC(=O)[C@H](CSSC[C@H](NC(=O)[C@H](CCC(N)=O)NC(=O)[C@H](CCCNC(=N)N)NC(=O)[C@H](CO)NC1=O)C(=O)N[C@@H](CC(C)C)C(=O)N[C@@H](CCC(=O)O)C(=O)N1CCC[C@H]1C(=O)N3)NC(=O)[C@H](CCCCN)NC(=O)[C@H](CCCNC(=N)N)NC(=O)[C@H](CC(N)=O)NC(=O)[C@H](CCSC)NC2=O [G31R]
IC50 [2, 4]: 0.343 nM | IC50 [3, 5]: 0.314 nM

CC[C@H](C)[C@@H]1NC(=O)[C@H](CCCCN)NC(=O)[C@@H](NC(=O)[C@H](CCCCN)NC(=O)[C@@H](NC(=O)[C@H](CC(N)=O)NC(=O)[C@@H](NC(=O)[C@@H](NC(=O)[C@@H](NC(=O)CN)C(C)C)[C@@H](C)CC)[C@@H](C)CC)C(C)C)CSSC[C@@H]2NC(=O)[C@H](CCCCN)NC(=O)CNC(=O)[C@H](Cc3ccccc3)NC(=O)[C@H](CCCNC(=N)N)NC(=O)[C@H](CCSC)NC(=O)CNC(=O)[C@H](C)NC(=O)[C@H](CCCCN)NC(=O)[C@H](CCCCN)NC(=O)[C@@H]3CSSC[C@@H](C(=O)N[C@H](C(=O)N4CCC[C@H]4C(=O)N[C@@H](CCCCN)C(=O)O)[C@@H](C)O)NC(=O)[C@H](Cc4c[nH]cn4)NC(=O)[C@H](CSSC[C@H](NC(=O)[C@H](CCC(N)=O)NC(=O)[C@H](CCCNC(=N)N)NC(=O)[C@H](CO)NC1=O)C(=O)N[C@@H](CC(C)C)C(=O)N[C@@H](C)C(=O)N1CCC[C@H]1C(=O)N3)NC(=O)[C@H](CCCCN)NC(=O)CNC(=O)[C@H](CC(N)=O)NC(=O)[C@H](CCSC)NC2=O [E16A] (H-GVIINVKCKISRQCLAPCKKAGMRFGKCMNGKCHCTPK-OH; disulfide 8-28, 14-33, 18-35)
IC50 [2, 4]: 0.101 nM | IC50 [3, 5]: 0.101 nM

B1: 20k PEG-L2-6H-L3-CH2-L10-OsK1(1-38) (conjugate)
chain: MGGHHHHHHGGGPSVFLFPPKPKDTLMISRTPEVTCVVVDVSHEDPEVKFNWYVDGVEVHNAKTKPREEQYNSTYRVVSVLTVLHQDWLNGKEYKCKVSNKALPAPIEKTISGGGGSGGGGSGVIINVKCKISRQCLEPCKKAGMRFGKCMNGKCHCTPK
IC50 ([2]; read-out: WB/IFNg (IC50)): 50.1 nM | IC50 ([3]; read-out: WB/IL-2 (IC50)): 8.32 nM

B2: FcLoop-G4-OSK-G2 (protein)
chain: MDKTHTCPPCPAPELLGGPSVFLFPPKPKDTLMISRTPEVTCVVVDVSHEDPEVKFNWYVDGVEVHNAKTKPREEQYNSTYRVVSVLTVLHQDWLNGKEYKCKVSNKALPAPIEKTISKAKGQPREPQVYTLPPSRDELGGGGGVIINVKCKISRQCLEPCKKAGMRFGKCMNGKCHCTPKGGTKNQVSLTCLVKGFYPSDIAVEWESNGQPENNYKTTPPVLDSDGSFFLYSKLTVDKSRWQQGNVFSCSVMHEALHNHYTQKSLSLSPGK
IC50 ([2]; read-out: WB/IFNg (IC50)): 0.195 nM | IC50 ([3]; read-out: WB/IL-2 (IC50)): 0.15 nM

B3: FcLoop-G2-ShK-G2 (protein)
chain: MDKTHTCPPCPAPELLGGPSVFLFPPKPKDTLMISRTPEVTCVVVDVSHEDPEVKFNWYVDGVEVHNAKTKPREEQYNSTYRVVSVLTVLHQDWLNGKEYKCKVSNKALPAPIEKTISKAKGQPREPQVYTLPPSRDELGGRSCIDTIPKSRCTAFQCKHSMKYRLSFCRKTCGTCGGTKNQVSLTCLVKGFYPSDIAVEWESNGQPENNYKTTPPVLDSDGSFFLYSKLTVDKSRWQQGNVFSCSVMHEALHNHYTQKSLSLSPGK
IC50 ([2]; read-out: WB/IFNg (IC50)): 0.119 nM | IC50 ([3]; read-out: WB/IL-2 (IC50)): 0.109 nM

B4: FcLoop-G2-OSK-G2 (protein)
chain: MDKTHTCPPCPAPELLGGPSVFLFPPKPKDTLMISRTPEVTCVVVDVSHEDPEVKFNWYVDGVEVHNAKTKPREEQYNSTYRVVSVLTVLHQDWLNGKEYKCKVSNKALPAPIEKTISKAKGQPREPQVYTLPPSRDELGGGVIINVKCKISRQCLEPCKKAGMRFGKCMNGKCHCTPKGGTKNQVSLTCLVKGFYPSDIAVEWESNGQPENNYKTTPPVLDSDGSFFLYSKLTVDKSRWQQGNVFSCSVMHEALHNHYTQKSLSLSPGK
IC50 ([2]; read-out: WB/IFNg (IC50)): 0.056 nM | IC50 ([3]; read-out: WB/IL-2 (IC50)): 0.028 nM
